Results reported in patent US4847247A, “Penicillin derivatives as anti-inflammatory and antidegenerative agents” (Merck & Co., Inc., priority 1986, dated 1989).

What follows are molecules tested against T1, Human Polymorphonuclear Leukocyte Elastase (Homo sapiens, UniProt P08246) (assay: Inhibition of human polymorphonuclear leukocyte (granulocyte) elastase via hydrolysis of Boc-AAPAN). Conditions: not given.
T1 construct: Crude extract of human polymorphonuclear leukocytes (PMN) containing elastase activity; endogenous in cells; host or cells: human polymorphonuclear leukocytes (crude extract)
T1 sequence (P08246 30-247 limits assumed): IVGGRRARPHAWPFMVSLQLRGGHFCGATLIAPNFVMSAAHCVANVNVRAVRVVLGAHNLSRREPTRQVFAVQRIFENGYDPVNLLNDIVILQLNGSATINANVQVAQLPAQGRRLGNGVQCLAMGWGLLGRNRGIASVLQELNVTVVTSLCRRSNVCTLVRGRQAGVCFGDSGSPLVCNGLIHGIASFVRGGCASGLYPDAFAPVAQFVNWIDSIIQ
Type: biochemical
Method: Enzyme assay for the Inhibition of Human Polymorphonuclear Leukocyte Elastase Via Hydrolysis of N-t-Boc-alanyl-alanyl-prolylalanine-p-nitroanilide
0.05M TES (N-tris[hydroxymethyl]methyl-2-amino-ethanesulfonic acid) buffer, pH 7.5.
0.2 mM N-t-Boc-alanyl-alanyl-prolyl-alanine-p-nitroanilide (Boc-AAPAN).
To prepare substrate, the solid (m.w. 550) was first dissolved in 10.0 ml DMSO. Buffer at pH 7.5 was then added to a final volume of 100 ml.
Crude extract of human polymorphonuclear leukocytes (PMN) containing elastase activity.
Inhibitors (cephalosporin sulfoxide esters) to be tested dissolved in DMSO just before use.
To 1.0 ml of 0.2 mM Boc-AAPAN in a cuvette, 0.01-0.1 ml of DMSO with or without inhibitor was added. After mixing, a measurement was taken at 410 mμ to detect any spontaneous hydrolysis due to of test compound. 0.05 Milliliters of PMN extract was then added and the αOD/minute at 410 mμ was measured and recorded. Beckman model 35 spectrophotometer was used.
The elastase activity in the crude PMN extract may vary from one preparation to another. A control of each new batch is run, and the volume added in the assay procedure is adjusted according to activity.

SMILES | IC50 [µM]
CC1(C)[C@H](C(=O)OCc2ccccc2)N2C(=O)[C@@H](COC(=O)NCc3ccccc3)[C@H]2S1(=O)=O [6β-CH2 O(CO)NH(BZ) / 2 / OBZ] | 1.44
CC1(C)[C@H](C(=O)OCc2ccccc2)N2C(=O)[C@H](NC(=O)C(F)(F)F)[C@H]2S1(=O)=O [6α-CF3 CONH / 2 / OBZ, Benzyl 6α-trifluoroacetamidopenicillanate-1,1-dioxide] | 0.345

Same assay, conditions: crude human PMN extract, 0.2 mM Boc-AAPAN, pH 7.5, 410 mμ, 2 minutes after zero time; read-out: IC50 (dosage for 50% inhibition of the enzyme activity) (converted)

IC50 [µM] | SMILES
1.08 | CC1(C)[C@H](C(=O)OCc2ccc(C(=O)O)cc2)N2C(=O)[C@H](NC(=O)C(F)(F)F)[C@H]2[S+]1[O-] (stereo partly drawn) [6α-CF3 (CO)NH / 1 / OBZ(p-COOH)]
4.47 | CN(Cc1ccccc1)C(=O)[C@@H]1N2C(=O)[C@@H](NC(=O)C(F)(F)F)[C@H]2S(=O)(=O)C1(C)C [6β-CF3 (CO)NH / 2 / N(CH3)(BZ), 2,2-Dimethyl-6-(trifluoro-acetamido)-3-(N-methyl-N-benzylcarbamoyl)penam-1,1-dioxide]
5.44 | CCO[C@H]1C(=O)N2[C@@H](C(=O)OCc3ccccc3)C(C)(C)S(=O)(=O)[C@H]12 [6α-OC2 H5 / 2 / OBZ, Benzyl 6α-ethoxypenicillanate-1,1-dioxide]
7.2 | CN(C(=O)C(F)(F)F)[C@H]1C(=O)N2[C@@H]1SC(C)(C)[C@@H]2C(=O)OCc1ccccc1 [6α-CF3 CON(CH3) / 0 / OBZ, benzyl 6α-(N-methyltrifluoroacetamido)penicillinate]
12 | CN(CC(=O)O)C(=O)[C@@H]1N2C(=O)[C@H](NC(=O)C(F)(F)F)[C@H]2S(=O)(=O)C1(C)C [6α-CF3 (CO)NH / 2 / N(CH3)(CH2 COOH)]

More lines, now with the values behind:

SMILES | IC50 [µM]
Cc1ccc(S(=O)(=O)C[C@H]2C(=O)N3[C@@H](C(=O)OCc4ccccc4)C(C)(C)S(=O)(=O)[C@H]23)cc1 [6α-(TS)CH2 / 2 / OBZ] | 0.61
CC1(C)[C@H](C(=O)OCc2ccccc2)N2C(=O)[C@H](OCc3ccccc3)[C@H]2S1(=O)=O [6α-OBZ / 2 / OBZ] | 9.31
CCC1(N(C)C(=O)C(F)(F)F)C(=O)N2C1[S+]([O-])C(C)(C)C2C(=O)OCc1ccccc1 (stereo not drawn) [β-CF3 CON(CH3) / α-C2 H5 / 1 / OBZ] | 43.4
C[C@@H](OC(=O)OCc1ccccc1)[C@H]1C(=O)N2[C@@H](C(=O)OCc3ccccc3)C(C)(C)S(=O)(=O)[C@H]12 [drawing 29 / 2 / OBZ] | 0.0997
CC1(C)S[C@@H]2[C@H](COC(=O)NCc3ccccc3)C(=O)N2[C@H]1C(=O)OCc1ccccc1 [6β-CH2 O(CO)NH(BZ) / 0 / OBZ] | 33
CC1(C)S[C@@H]2[C@@H](COC(=O)NCc3ccccc3)C(=O)N2[C@H]1C(=O)OCc1ccccc1 [6α-CH2 O(CO)NH(BZ) / 0 / OBZ] | 11
Cc1ccc(S(=O)(=O)C[C@H]2C(=O)N3[C@@H](C(=O)OCc4ccccc4)C(C)(C)S(=O)(=O)[C@H]23)cc1 [6α-(TS)CH2 / 2 / OBZ (2nd)] | 4.07
CO[C@H]1C(=O)N2[C@@H](C(=O)OCc3ccccc3)C(C)(COC(C)=O)S(=O)(=O)[C@H]12 (stereo partly drawn) [α-CH3 O / 2 / OBZ] | 9.72 to 14.6
